Reference: ChEMBL document CHEMBL3774317, “Design and synthesis of novel tamoxifen analogues that avoid CYP2D6 metabolism” (Eur J Med Chem, 2016)

Key:
Type in all cases: functional
[1] = tested on: CCRF-CEM; test: Cytotoxicity against human CCRF-CEM cells assessed as cell growth at 50 nM after 48 hrs by SRB assay; conditions: read-out: Activity
[2] = Cytotoxicity against human SF295 cells assessed as cell growth at 50 uM after 48 hrs by SRB assay; conditions: SF-295, 48 h, read-out: Activity
[3] = tested on: NCI-H23; test: Cytotoxicity against human NCI-H23 cells assessed as cell growth at 50 uM after 48 hrs by SRB assay; conditions: NCI-H23, 48 h, read-out: Activity
[4] = tested on: HT-29; test: Cytotoxicity against human HT-29 cells assessed as cell growth at 5 uM after 48 hrs by SRB assay; conditions: HT-29, 48 h, read-out: Activity
[5] = tested on: EKVX; test: Cytotoxicity against human EKVX cells assessed as cell growth at 0.5 uM after 48 hrs by SRB assay; conditions: read-out: Activity
[6] = Cytotoxicity against human IGROV1 cells assessed as cell growth at 50 nM after 48 hrs by SRB assay; conditions: IGROV-1, 48 h, read-out: Activity
[7] = Cytotoxicity against human Hs 578T cells assessed as cell growth at 0.5 uM after 48 hrs by SRB assay; conditions: read-out: Activity
[8] = tested on: MCF7; test: Cytotoxicity against human MCF7 cells assessed as cell growth at 5 nM after 48 hrs by SRB assay; conditions: MCF7, 48 h, read-out: Activity
[9] = tested on: KM12; test: Cytotoxicity against human KM12 cells assessed as cell growth at 50 uM after 48 hrs by SRB assay; conditions: KM12, 48 h, read-out: Activity
[10] = tested on: HT-29; test: Cytotoxicity against human HT-29 cells assessed as cell growth at 0.5 uM after 48 hrs by SRB assay; conditions: HT-29, 48 h, read-out: Activity
[11] = Cytotoxicity against human PC3 cells assessed as cell growth at 0.5 uM after 48 hrs by SRB assay; conditions: PC-3, 48 h, read-out: Activity
[12] = Cytotoxicity against human NCI-ADR-RES cells assessed as cell growth at 5 uM after 48 hrs by SRB assay; conditions: read-out: Activity
[13] = tested on: MDA-MB-231; test: Cytotoxicity against human MDA-MB-231 cells assessed as cell growth at 5 uM after 48 hrs by SRB assay; conditions: MDA-MB-231, 48 h, read-out: Activity
[14] = tested on: MDA-MB-435; test: Cytotoxicity against human MDA-MB-435 cells assessed as cell growth at 50 uM after 48 hrs by SRB assay; conditions: MDA-MB-435, 48 h, read-out: Activity
[15] = Cytotoxicity against human SF295 cells assessed as cell growth at 0.5 uM after 48 hrs by SRB assay; conditions: SF-295, 48 h, read-out: Activity
[16] = Cytotoxicity against human COLO205 cells assessed as cell growth at 0.5 uM after 48 hrs by SRB assay; conditions: COLO 205, 48 h, read-out: Activity
[17] = tested on: KM12; test: Cytotoxicity against human KM12 cells assessed as cell growth at 50 nM after 48 hrs by SRB assay; conditions: KM12, 48 h, read-out: Activity
[18] = tested on: SN12C; test: Cytotoxicity against human SN12C cells assessed as cell growth at 50 nM after 48 hrs by SRB assay; conditions: read-out: Activity
[19] = Cytotoxicity against human Caki1 cells assessed as cell growth at 0.5 uM after 48 hrs by SRB assay; conditions: CAKI-1, 48 h, read-out: Activity
[20] = tested on: Malme-3M; test: Cytotoxicity against human MALME-3M cells assessed as cell growth at 50 nM after 48 hrs by SRB assay; conditions: read-out: Activity
[21] = Cytotoxicity against human TK10 cells assessed as cell growth at 0.5 uM after 48 hrs by SRB assay; conditions: TK-10, 48 h, read-out: Activity
[22] = Cytotoxicity against human SW620 cells assessed as cell growth at 0.5 uM after 48 hrs by SRB assay; conditions: SW-620, 48 h, read-out: Activity
[23] = Cytotoxicity against human Hs 578T cells assessed as cell growth at 5 nM after 48 hrs by SRB assay; conditions: read-out: Activity
[24] = Cytotoxicity against human HOP62 cells assessed as cell growth at 10^-4 M after 48 hrs by SRB assay; conditions: HOP-62, 48 h, read-out: Activity
[25] = Cytotoxicity against human UO31 cells assessed as cell growth at 10^-8 M after 48 hrs by SRB assay; conditions: UO-31, 48 h, read-out: Activity
[26] = Cytotoxicity against human COLO205 cells assessed as cell growth at 10^-6 M after 48 hrs by SRB assay; conditions: COLO 205, 48 h, read-out: Activity
[27] = Cytotoxicity against human SNB75 cells assessed as cell growth at 10^-5 M after 48 hrs by SRB assay; conditions: SNB-75, 48 h, read-out: Activity
[28] = tested on: Malme-3M; test: Cytotoxicity against human MALME-3M cells assessed as cell growth at 10^-6 M after 48 hrs by SRB assay; conditions: read-out: Activity
[29] = tested on: NCI-H226; test: Cytotoxicity against human NCI-H226 cells assessed as cell growth at 10^-8 M after 48 hrs by SRB assay; conditions: NCI-H226, 48 h, read-out: Activity
[30] = Cytotoxicity against human SF539 cells assessed as cell growth at 10^-5 M after 48 hrs by SRB assay; conditions: SF-539, 48 h, read-out: Activity
[31] = Cytotoxicity against human HOP62 cells assessed as cell growth at 10^-5 M after 48 hrs by SRB assay; conditions: HOP-62, 48 h, read-out: Activity
[32] = Cytotoxicity against human SF268 cells assessed as cell growth at 10^-7 M after 48 hrs by SRB assay; conditions: SF-268, 48 h, read-out: Activity
[33] = Cytotoxicity against human OVCAR4 cells assessed as cell growth at 10^-8 M after 48 hrs by SRB assay; conditions: OVCAR-4, 48 h, read-out: Activity
[34] = tested on: KM12; test: Cytotoxicity against human KM12 cells assessed as cell growth at 10^-7 M after 48 hrs by SRB assay; conditions: KM12, 48 h, read-out: Activity
[35] = tested on: MDA-MB-468; test: Cytotoxicity against human MDA-MB-468 cells assessed as cell growth at 10^-4 M after 48 hrs by SRB assay; conditions: MDA-MB-468, 48 h, read-out: Activity
[36] = tested on: SK-MEL-28; test: Cytotoxicity against human SK-MEL-28 cells assessed as cell growth at 10^-8 M after 48 hrs by SRB assay; conditions: SK-MEL-28, 48 h, read-out: Activity
[37] = tested on: HT-29; test: Cytotoxicity against human HT-29 cells assessed as cell growth at 10^-5 M after 48 hrs by SRB assay; conditions: HT-29, 48 h, read-out: Activity
[38] = tested on: ACHN; test: Cytotoxicity against human ACHN cells assessed as cell growth at 10^-4 M after 48 hrs by SRB assay; conditions: read-out: Activity
[39] = Cytotoxicity against human HCT15 cells assessed as cell growth at 10^-6 M after 48 hrs by SRB assay; conditions: HCT-15, 48 h, read-out: Activity
[40] = Cytotoxicity against human UACC257 cells assessed as cell growth at 10^-5 M after 48 hrs by SRB assay; conditions: UACC-257, 48 h, read-out: Activity
[41] = tested on: K562; test: Cytotoxicity against human K562 cells assessed as cell growth at 10^-6 M after 48 hrs by SRB assay; conditions: K562, 48 h, read-out: Activity
[42] = Cytotoxicity against human PC3 cells assessed as cell growth at 10^-7 M after 48 hrs by SRB assay; conditions: PC-3, 48 h, read-out: Activity

## CCCCCCCCCC(=O)Oc1ccc(/C(=C(/C)c2ccccc2)c2ccc(OCCN3CCCC3)cc2)cc1
[1]
  growth at 0.05 µM: 100%
[2]
  growth at 50 µM: -94%
[3]
  growth at 50 µM: -78%
[4]
  growth at 5 µM: 58%
[5]
  growth at 0.5 µM: 78%
[6]
  growth at 0.05 µM: 95%
[7]
  growth at 0.5 µM: 75%
[8]
  growth at 0.005 µM: 45%
[9]
  growth at 50 µM: -86%
[10]
  growth at 0.5 µM: 12%
[11]
  growth at 0.5 µM: 86%
[12]
  growth at 5 µM: 82%
[13]
  growth at 5 µM: 102%
[14]
  growth at 50 µM: -100%
[15]
  growth at 0.5 µM: 79%
[16]
  growth at 0.5 µM: 44%
[17]
  growth at 0.05 µM: 98%
[18]
  growth at 0.05 µM: 101%
[19]
  growth at 0.5 µM: 75%
[20]
  growth at 0.05 µM: 98%
[21]
  growth at 0.5 µM: 90%
[22]
  growth at 0.5 µM: 88%
[23]
  growth at 0.005 µM: 92%

## C/C(=C(/c1ccc(O)cc1)c1ccc(OCCN2CCCC2)cc1)c1ccccc1
[24]
  growth at 100 µM: -86%
[25]
  growth at 0.01 µM: 93%
[26]
  growth at 1 µM: 88%
[27]
  growth at 10 µM: 23%
[28]
  growth at 1 µM: 88%
[29]
  growth at 0.01 µM: 91%
[30]
  growth at 10 µM: -67%
[31]
  growth at 10 µM: -51%
[32]
  growth at 0.1 µM: 94%
[33]
  growth at 0.01 µM: 90%
[34]
  growth at 0.1 µM: 100%
[35]
  growth at 100 µM: -87%
[36]
  growth at 0.01 µM: 90%
[37]
  growth at 10 µM: -66%
[38]
  growth at 100 µM: -91%
[39]
  growth at 1 µM: 81%
[40]
  growth at 10 µM: -71%
[41]
  growth at 1 µM: 81%
[42]
  growth at 0.1 µM: 105%
